Data as given in patent US20220243210A1, “ANGIOTENSIN II TYPE 1 RECEPTOR TARGETED OLIGONUCLEOTIDES AND USES THEREOF” (Ionis Pharmaceuticals, Inc., priority 2019, published 2022).
Oligonucleotides are written 5' to 3', each unit as a sugar letter and its base; * is a phosphorothioate linkage, no mark a phosphodiester; rarer units and linkages stand in square brackets, end groups in braces. Plain capitals give the bases only. {Cy3} = Cy3 fluorescent dye label; k = constrained ethyl (cEt); [5mC] = 5-methylcytosine; d = 2'-deoxy (DNA)

System: mouse MALAT RNA
Assay: MALAT RNA reduction in vivo, C57BL6/J mice, with or without Losartan pretreatment
Details: no Losartan, sacrifice 4 days after dose
Experimental: Compound Nos. 1213287 and 1295887 are described in Table 1 above. Compound Nos. 1213287 and 1295887 were tested in C57BL6/J mice with or without pretreatment with the AGTR1 antagonist, Losartan. The mice were divided into groups of 3 mice each. Mice receiving Losartan were treated with 150 mg/L in the drinking water for 10 days. Each mouse received a single IV dose on day 10 of either Compound No. 1213287 or 1295887 of either 1.2 or 3.6 μmol/kg. The mice were then sacrificed on day 14. Heart, adipose, adrenal, kidney, and liver tissue was then collected and homogenized and RNA analysis was performed. A group of 4 mice received PBS as a negative control.
RNA was extracted from heart, adipose, adrenal, kidney, and liver tissue for real-time PCR analysis of measurement of RNA expression of MALAT using primer probe set mMALAT1 #2 (forward sequence […] (SEQ ID NO: 5); reverse sequence […] (SEQ ID NO: 6); probe sequence […] (SEQ ID NO: 7)). Results are presented as percent change of RNA, relative to PBS control, normalized to mouse GAPDH.

Compound No. 1213287: Control unconjugated 19-nucleotide modified oligonucleotide TCAGCATTCTAATAGCAGC with a 3′ Cy3 label (antisense dTd[5mC]dAkG*k[5mC]*kA*dT*dT*d[5mC]*dT*dA*dA*dT*dA*dG*d[5mC]*kA*kG*k[5mC]-{Cy3}) [reference compound]
MALAT RNA (% control) (Adipose, single IV 1.2 μmol/kg): 78.0 % control | MALAT RNA (% control) (Adipose, single IV 3.6 μmol/kg): 53.0 % control | MALAT RNA (% control) (Adrenal, single IV 1.2 μmol/kg): 78.7 % control | MALAT RNA (% control) (Adrenal, single IV 3.6 μmol/kg): 50.0 % control | MALAT RNA (% control) (Heart, single IV 1.2 μmol/kg): 77.0 % control | MALAT RNA (% control) (Heart, single IV 3.6 μmol/kg): 57.3 % control | MALAT RNA (% control) (Kidney, single IV 1.2 μmol/kg): 58.3 % control | MALAT RNA (% control) (Kidney, single IV 3.6 μmol/kg): 42.3 % control | MALAT RNA (% control) (Liver, single IV 1.2 μmol/kg): 53.7 % control | MALAT RNA (% control) (Liver, single IV 3.6 μmol/kg): 35.0 % control
